Reference: patent US6602897B2, “m-Amino-phenylimino-imidazolidine derivatives for treating urinary incontinence” (Boehringer Ingelheim Pharma KG, priority 2000, dated 2003)
Structures can show the parent of a compound that is named as a salt.

Legend:
[1] = biological target: CYP2D6 (Homo sapiens, UniProt P10635); assay: Metabolism: breakdown of test substance by enzyme CYP2D6; format: in vitro ADME
Procedure: To determine the metabolism, the enzyme CYP2D6 was allowed to act on the test substances. After 30 minutes, a check was made to see how much of the test substance put in had been broken down by the enzyme.

[2] = test system: HLM; assay: Metabolism: breakdown of test substance by HLM; format: in vitro ADME
Procedure: The rate of breakdown under the effect of the enzyme HLM/60 minutes is tested analogously.

[3] = test system: dog; assay: Efficacy: maximum contraction in the dog compared with noradrenalin; conditions: percentage of contraction compared with noradrenalin
Procedure: (§1) The efficacy and selectivity of the compounds is determined as follows:
(§2) The maximum contraction in the dog and the activity on the human urethra are given as percentages of contraction compared with noradrenalin. Selectivity in the dog: percentage contraction on the femoral artery in the dog at 10^−5 M—percentage contraction on the carotid artery in the dog at 10^−5 M.

[4] = test system: Human Urethra; assay: Efficacy: activity on the human urethra, contraction compared with noradrenalin; conditions: percentage of contraction compared with noradrenalin
Procedure: as §1, §2

[5] = test system: femoral artery in the dog / carotid artery in the dog; assay: Selectivity in the dog: contraction on femoral artery vs carotid artery; conditions: percentage contraction on femoral artery at 10^-5 M — percentage contraction on carotid artery at 10^-5 M
Procedure: as §1, §2

[6] = Bioavailability after oral vs intravenous administration to fasted male rats, plasma HPLC; format: in vivo; conditions: rat, oral compared with intravenous, pooled plasma by HPLC
Procedure: In order to determine bioavailability, the test substances were administered orally to a group of 8 male rats which had been fasted. As a comparison, the test substances were administered intravenously to animals in an identical second group. 1 ml blood samples were taken from the animals of both groups at specified times after administration (10 minutes, 30 minutes, 1 hour, 2 hours, and 4 hours, and additionally after 6 hours in the case of the animals treated by oral route). The blood samples taken in each group were mixed together (8 ml). After further working up, the content of the test substances in the blood for the particular time was determined from the plasma by HPLC (High Performance Liquid Chromatography) using standard methods and compared for the two groups.

Chain of CYP2D6 (P10635 whole entry): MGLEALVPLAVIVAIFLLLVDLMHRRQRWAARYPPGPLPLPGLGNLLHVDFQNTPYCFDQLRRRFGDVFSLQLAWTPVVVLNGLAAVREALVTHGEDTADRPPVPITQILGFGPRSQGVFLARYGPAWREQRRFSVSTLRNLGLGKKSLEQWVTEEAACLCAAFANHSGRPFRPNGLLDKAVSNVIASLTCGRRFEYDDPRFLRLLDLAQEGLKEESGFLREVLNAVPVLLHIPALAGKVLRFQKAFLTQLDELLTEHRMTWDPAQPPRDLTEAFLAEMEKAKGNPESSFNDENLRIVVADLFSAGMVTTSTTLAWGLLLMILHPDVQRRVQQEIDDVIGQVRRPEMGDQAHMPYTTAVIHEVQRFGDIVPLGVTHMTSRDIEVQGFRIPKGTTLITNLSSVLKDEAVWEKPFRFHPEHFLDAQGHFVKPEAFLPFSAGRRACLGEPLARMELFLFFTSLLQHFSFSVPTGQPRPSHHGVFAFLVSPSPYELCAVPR

Compound	% Breakdown of Substrate after 30 minutes' Incubation with CYP2D6 [1] [%]	Breakdown of Substrate after 60 minutes' Incubation with HLM [2]	Activity in the Dog (maximum contraction) [3] [%]	Activity on Human Urethra [4] [%]	Selectivity in the Dog [5]	bioavailability [6] [%]	melting point [°C]
Cc1c(N(C)C)cc(Cl)c(Br)c1NC1=NCCN1 [Compound 1, 2′-Bromo-3′-chloro-5′-dimethylamino-6′-methylphen-1′-yl-2-iminoimidazolidine]	40.5	32.1	109	100	0.92	–	–
Cc1c(NC2=NCCN2)cc(Cl)cc1N(C)C [Compound 4, 3′-chloro-5′-dimethylamino-6′-methylphen-1′-yl-2-iminoimidazolidine]	36.5	17.1	116	137	0.99	11	–
CN(C)c1c(Br)ccc(NC2=NCCN2)c1Cl [Compound 7, 4′-bromo-2′-chloro-3′-dimethylaminophen-1′-yl-2-iminoimidazolidine]	46.4	55.8	–	–	–	–	150 to 155
Cc1c(N(C)C)cc(Br)c(Br)c1NC1=NCCN1 [Compound 5, 2′-3′-dibromo-5′-dimethylamino-6′-methylphen-1′-yl-2-iminoimidazolidine]	22.2	22.0	89	113	0.71	0.8	–
Cc1c(NC2=NCCN2)cc(Br)cc1N(C)C [Compound 3, 3′-bromo-5′-dimethylamino-6′-methylphen-1′-yl-2-iminoimidazolidine]	33.9	17.0	87	72	0.76	–	140 to 143
CN(C)c1cccc(NC2=NCCN2)c1Cl [Compound 6, 2′-chloro-3′-dimethylaminophen-1′-yl-2-iminoimidazolidine]	–	7.4	–	–	–	–	146 to 148
CN(C)c1ccc(Br)c(NC2=NCCN2)c1Cl	–	–	–	–	–	–	142 to 145
Cc1c(N(C)C)cc(Cl)c(Br)c1NC1=NCCN1 (as salt: hydrochloride) [Compound 1, 2′-Bromo-3′-chloro-5′-dimethylamino-6′-methylphen-1′-yl-2-iminoimidazolidine]	–	–	–	–	–	–	239 to 240
